We go through 5 molecules from the NIST ThermoML archive (doi:10.1016/j.jct.2018.12.016).

For the series the following is noted: 298.15 K, Liquid; for mass density: 101.33 kPa, Pycnometric method; for vapor or sublimation pressure: Manometric method.

± gives the expanded uncertainty stated by the source.

One may read the mass density as mass per unit of volume. As usually defined, the vapor or sublimation pressure is the pressure of vapour in equilibrium with the condensed phase.

In the case of `CC#N` [acetonitrile], the mass density was found to be 776 ± 2 kg/m3 and the “vapor or sublimation pressure” value is 11.81 ± 0.16 kPa.
For `CCCCOC(=O)c1ccccc1C(=O)OCCCC` [dibutyl phthalate], the mass density was 1042 ± 2 kg/m3.
Consider `COC(=O)OC` [dimethyl carbonate], for which the mass density is 1063 ± 2 kg/m3 and the “vapor or sublimation pressure” value stood at 7.256 ± 0.12 kPa.
In the case of `C[S+](C)[O-]` [dimethyl sulfoxide], the mass density is 1096 ± 3 kg/m3 and the “vapor or sublimation pressure” value turned out to be 0.08 ± 0.078 kPa.
`[Hg]` [mercury]: the mass density was 13530 ± 30 kg/m3.
